Measurements reported in US20240245051A1, “DISINFECTING, ANTIMICROBIAL AND PRESERVATIVE COMPOSITION” (BJBIOCHEM CO., LTD., priority 2021, published 2024).

What follows are compounds tested on A. niger (assay: Antimicrobial test, broth dilution method (MIC)). Conditions: single compounds of Comparative Examples.
Format: cell-based
Experimental: (§1) The antimicrobial activity of the test solution was measured using a broth dilution method. The concentration of the test solution that was treated was diluted from the highest concentration of 5% to the lowest concentration of 0.0001%. The test solution was cultured in the presence of the strain and then the turbidity of the tube was determined. […] After the primary test described as above, the concentration of the test solution that was treated was further subdivided and a secondary test was conducted to obtain an accurate minimum inhibitory concentration (MIC).
(§2) Test strains E. coli, S. aureus, and P. aeruginosa were inoculated into tryptic soy broth and incubated at 35±2° C. for 16 to 24 hours. C. albicans was inoculated into Sabouraud dextrose broth and cultured at 35° C. for 24 hours. A. niger was seeded on potato dextrose agar and cultured at (25±1°) C for 7 days, sterile physiological saline was dispensed into a solid medium on which the bacteria grew, and spores were removed using a spreader and then diluted in sterile physiological saline.
(§3) A liquid medium was put into the tube and the concentration of the test solution that was treated was diluted from the highest concentration of 5% to the lowest concentration of 0.0001%. The liquid media used for E. coli, S. aureus, and P. aeruginosa (bacteria) were tryptic soy broth, and the liquid media used for C. albicans, and A. niger (fungi) were Sabouraud dextrose broth.
(§4) E. coli, S. aureus, and P. aeruginosa of the strains were inoculated at a concentration of 1×10^5 CFU/mL in the test tube. The tubes treated with the test solution were incubated at 35±2° C. for 16 to 24 hours. C. albicans and A. niger were inoculated at a concentration of 1×10^4 CFU/mL in the test tube. After treatment with the test solution was completed, C. albicans was cultured at 35° C. for 24 to 48 hours and A. niger was cultured at 25° C. for 46 to 50 hours. A medium tube, to which the bacterial solution was not added, was used as a negative control, and a tube containing the medium inoculated with only the bacterial solution without the test solution was used as a growth control. In addition, in order to determine the antimicrobial activity of dipropylene glycol itself used as a solvent, the MIC of the test bacteria for the solvent was measured under the same conditions as in the sample.

Going from `OCCCc1ccccc1` [Comparative Example 12, 3-phenyl-1-propanol] to `COc1ccc(C(=O)O)cc1` [Comparative Example 22, Sodium anisate], the “minimum inhibitory concentration (MIC), A. niger” value rises from 0.03% to 0.1%.

Compared with `CCCCCCCCCCCCNCC(O)CO` (stereo not shown) [Comparative Example 1, (3-dodecylamino)propane-1,2-diol], `CCCCCCCCOCC(O)CO` (stereo not shown) [Comparative Example 6, Octyl glycerin] is higher in “minimum inhibitory concentration (MIC), A. niger” value: 0.09% for the first, 0.5% for the second.

`CCCCC(CC)COCC(O)CO` (stereo not shown) [Comparative Example 7, Ethylhexylglycerin] and `CCCCC(O)CO` (stereo not shown) [Comparative Example 2, Hexane-1,2-diol] are the same in “minimum inhibitory concentration (MIC), A. niger” value: 0.5% for the first, 0.5% for the second.

First: Cc1cc(CC(C)CC(C)(C)C)n(O)c(=O)c1 (stereo not shown) [Comparative Example 18, Piroctone olamine]
Second: CCCCCCCCCCCC(=O)NC(CCCN=C(N)N)C(=O)OCC (stereo not shown) [Comparative Example 19, Lauroyl arginine ethyl ester]
The “minimum inhibitory concentration (MIC), A. niger” value of the first is higher: 0.3% for the first, 0.003% for the second.

Compared with `CCCCCCC(O)CO` (stereo not shown) [Comparative Example 3, Octane-1,2-diol], `CC(=O)CCC(=O)O` [Comparative Example 20, Levulinic acid] is lower in “minimum inhibitory concentration (MIC), A. niger” value: 0.3% for the first, 0.15% for the second.

`O=C([O-])CN(CCN(CC(=O)[O-])CC(=O)[O-])CC(=O)[O-].[Na+].[Na+].[Na+].[Na+]` [Comparative Example 24, Tetrasodium EDTA] was tested, and the “minimum inhibitory concentration (MIC), A. niger” value was 0.15%.

The compounds below were run on C. albicans (assay: Antimicrobial test, broth dilution method (MIC)). Conditions: single compounds of Comparative Examples.
Format: cell-based
Experimental: as §1, §2, §3, §4

Compared with `OCCCc1ccccc1` [Comparative Example 12, 3-phenyl-1-propanol], `COc1ccc(C(=O)O)cc1` [Comparative Example 22, Sodium anisate] is higher in “minimum inhibitory concentration (MIC), C. albicans” value: 0.03% for the first, 0.1% for the second.

First: CCCCCCCCCCCCNCC(O)CO (stereo not shown) [Comparative Example 1, (3-dodecylamino)propane-1,2-diol]
Second: CCCCCCCCOCC(O)CO (stereo not shown) [Comparative Example 6, Octyl glycerin]
The “minimum inhibitory concentration (MIC), C. albicans” value of the first is lower: 0.01% for the first, 0.25% for the second.

Compared with `CCCCC(CC)COCC(O)CO` (stereo not shown) [Comparative Example 7, Ethylhexylglycerin], `CCCCC(O)CO` (stereo not shown) [Comparative Example 2, Hexane-1,2-diol] is higher in “minimum inhibitory concentration (MIC), C. albicans” value: 0.5% for the first, 2% for the second.

Compared with `Cc1cc(CC(C)CC(C)(C)C)n(O)c(=O)c1` (stereo not shown) [Comparative Example 18, Piroctone olamine], `CCCCCCCCCCCC(=O)NC(CCCN=C(N)N)C(=O)OCC` (stereo not shown) [Comparative Example 19, Lauroyl arginine ethyl ester] is lower in “minimum inhibitory concentration (MIC), C. albicans” value: 0.2% for the first, 0.001% for the second.

First: CCCCCCC(O)CO (stereo not shown) [Comparative Example 3, Octane-1,2-diol]
Second: CC(=O)CCC(=O)O [Comparative Example 20, Levulinic acid]
The “minimum inhibitory concentration (MIC), C. albicans” value of the first is higher: 0.5% for the first, 0.1% for the second.

`O=C([O-])CN(CCN(CC(=O)[O-])CC(=O)[O-])CC(=O)[O-].[Na+].[Na+].[Na+].[Na+]` [Comparative Example 24, Tetrasodium EDTA] was tested, and the “minimum inhibitory concentration (MIC), C. albicans” value was 0.05%.

Each compound was assayed on E. coli (assay: Antimicrobial test, broth dilution method (MIC)). Conditions: single compounds of Comparative Examples.
Format: cell-based
Experimental: as §1, §2, §3, §4

Going from `OCCCc1ccccc1` [Comparative Example 12, 3-phenyl-1-propanol] to `COc1ccc(C(=O)O)cc1` [Comparative Example 22, Sodium anisate], the “minimum inhibitory concentration (MIC), E. coli” value falls from 0.4% to 0.05%.

Compared with `CCCCCCCCCCCCNCC(O)CO` (stereo not shown) [Comparative Example 1, (3-dodecylamino)propane-1,2-diol], `CCCCCCCCOCC(O)CO` (stereo not shown) [Comparative Example 6, Octyl glycerin] is higher in “minimum inhibitory concentration (MIC), E. coli” value: 0.01% for the first, 0.5% for the second.

Going from `CCCCC(CC)COCC(O)CO` (stereo not shown) [Comparative Example 7, Ethylhexylglycerin] to `CCCCC(O)CO` (stereo not shown) [Comparative Example 2, Hexane-1,2-diol], the “minimum inhibitory concentration (MIC), E. coli” value rises from 0.3% to 1%.

Compared with `Cc1cc(CC(C)CC(C)(C)C)n(O)c(=O)c1` (stereo not shown) [Comparative Example 18, Piroctone olamine], `CCCCCCCCCCCC(=O)NC(CCCN=C(N)N)C(=O)OCC` (stereo not shown) [Comparative Example 19, Lauroyl arginine ethyl ester] is lower in “minimum inhibitory concentration (MIC), E. coli” value: 0.05% for the first, 0.003% for the second.

Compared with `CCCCCCC(O)CO` (stereo not shown) [Comparative Example 3, Octane-1,2-diol], `CC(=O)CCC(=O)O` [Comparative Example 20, Levulinic acid] is lower in “minimum inhibitory concentration (MIC), E. coli” value: 0.25% for the first, 0.02% for the second.

With `O=C([O-])CN(CCN(CC(=O)[O-])CC(=O)[O-])CC(=O)[O-].[Na+].[Na+].[Na+].[Na+]` [Comparative Example 24, Tetrasodium EDTA] the “minimum inhibitory concentration (MIC), E. coli” value was 0.1%.

Each compound was assayed on P. aeruginosa (assay: Antimicrobial test, broth dilution method (MIC)). Conditions: single compounds of Comparative Examples.
Format: cell-based
Experimental: as §1, §2, §3, §4

First: OCCCc1ccccc1 [Comparative Example 12, 3-phenyl-1-propanol]
Second: COc1ccc(C(=O)O)cc1 [Comparative Example 22, Sodium anisate]
The “minimum inhibitory concentration (MIC), P. Aeruginosa” value of the first is higher: 0.2% for the first, 0.05% for the second.

Going from `CCCCCCCCCCCCNCC(O)CO` (stereo not shown) [Comparative Example 1, (3-dodecylamino)propane-1,2-diol] to `CCCCCCCCOCC(O)CO` (stereo not shown) [Comparative Example 6, Octyl glycerin], the “minimum inhibitory concentration (MIC), P. Aeruginosa” value rises from 0.03% to 0.5%.

Going from `CCCCC(CC)COCC(O)CO` (stereo not shown) [Comparative Example 7, Ethylhexylglycerin] to `CCCCC(O)CO` (stereo not shown) [Comparative Example 2, Hexane-1,2-diol], the “minimum inhibitory concentration (MIC), P. Aeruginosa” value falls from 2% to 1%.

First: Cc1cc(CC(C)CC(C)(C)C)n(O)c(=O)c1 (stereo not shown) [Comparative Example 18, Piroctone olamine]
Second: CCCCCCCCCCCC(=O)NC(CCCN=C(N)N)C(=O)OCC (stereo not shown) [Comparative Example 19, Lauroyl arginine ethyl ester]
The “minimum inhibitory concentration (MIC), P. Aeruginosa” value of the first is higher: 0.2% for the first, 0.003% for the second.

First: CCCCCCC(O)CO (stereo not shown) [Comparative Example 3, Octane-1,2-diol]
Second: CC(=O)CCC(=O)O [Comparative Example 20, Levulinic acid]
The “minimum inhibitory concentration (MIC), P. Aeruginosa” value of the first is higher: 0.5% for the first, 0.1% for the second.

In the case of `O=C([O-])CN(CCN(CC(=O)[O-])CC(=O)[O-])CC(=O)[O-].[Na+].[Na+].[Na+].[Na+]` [Comparative Example 24, Tetrasodium EDTA], the “minimum inhibitory concentration (MIC), P. Aeruginosa” value is reported as 0.15%.

Each compound was assayed on S. aureus (assay: Antimicrobial test, broth dilution method (MIC)). Conditions: single compounds of Comparative Examples.
Format: cell-based
Experimental: as §1, §2, §3, §4

Compared with `OCCCc1ccccc1` [Comparative Example 12, 3-phenyl-1-propanol], `COc1ccc(C(=O)O)cc1` [Comparative Example 22, Sodium anisate] is lower in “minimum inhibitory concentration (MIC), S. Aureus” value: 0.4% for the first, 0.01% for the second.

Compared with `CCCCCCCCCCCCNCC(O)CO` (stereo not shown) [Comparative Example 1, (3-dodecylamino)propane-1,2-diol], `CCCCCCCCOCC(O)CO` (stereo not shown) [Comparative Example 6, Octyl glycerin] is higher in “minimum inhibitory concentration (MIC), S. Aureus” value: 0.01% for the first, 0.5% for the second.

First: CCCCC(CC)COCC(O)CO (stereo not shown) [Comparative Example 7, Ethylhexylglycerin]
Second: CCCCC(O)CO (stereo not shown) [Comparative Example 2, Hexane-1,2-diol]
The “minimum inhibitory concentration (MIC), S. Aureus” value of the first is lower: 0.15% for the first, 2% for the second.

Compared with `Cc1cc(CC(C)CC(C)(C)C)n(O)c(=O)c1` (stereo not shown) [Comparative Example 18, Piroctone olamine], `CCCCCCCCCCCC(=O)NC(CCCN=C(N)N)C(=O)OCC` (stereo not shown) [Comparative Example 19, Lauroyl arginine ethyl ester] is lower in “minimum inhibitory concentration (MIC), S. Aureus” value: 0.05% for the first, 0.003% for the second.

Going from `CCCCCCC(O)CO` (stereo not shown) [Comparative Example 3, Octane-1,2-diol] to `CC(=O)CCC(=O)O` [Comparative Example 20, Levulinic acid], the “minimum inhibitory concentration (MIC), S. Aureus” value falls from 0.5% to 0.02%.

`O=C([O-])CN(CCN(CC(=O)[O-])CC(=O)[O-])CC(=O)[O-].[Na+].[Na+].[Na+].[Na+]` [Comparative Example 24, Tetrasodium EDTA] was tested, and the “minimum inhibitory concentration (MIC), S. Aureus” value was 0.1%.
